In patent US20250197368A1 (priority 2020, published 2025):

Key:
[1] = test system: human α2β3γ2 GABAARs; test: In vitro electrophysiological recording assay (automated patch-clamp), α2-GABAAR relative efficacy; type: cell-based; details: % efficacy normalised to diazepam; GABA EC10-20; concentration generally >= 100 times Ki
In short: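 Automated whole-cell patch clamp at 20-22° C on L(tk^−) cells (QPatch, −65 mV) or HEK293 cells (SyncroPatch, −80 mV) stably expressing the human receptor. Compound pre-applied ≥1 min, then co-applied with GABA EC10-20; % potentiation of leak-corrected peak current, normalised to diazepam, typically at ≥100× Ki.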

[2] = test system: Male Sprague Dawley rats; test: Elevated plus maze assay; type: in vivo; details: for percent time spent on open arms versus vehicle treated rats: rat; for effect in the rat elevated plus maze assay: dosed orally
Description: The method, which detects anxiolytic activity, follows that described by Handley and Mithani (Naunyn. Schmied. Arch. Pharmacol., 327, 1-5, 1984). Rodents avoid open spaces (the open arms of an elevated plus-maze). Anxiolytics increase exploratory activity in the open arms, as indicated by increased time spent on the open arms and/or by increased % open-arm entries.
The maze was made from black matte acrylic and consisted of 4 arms of equal length and width (50×10 cm) arranged in the form of a plus sign (+). Two opposite arms were enclosed by 40 cm high walls (closed arms). The two other arms have no walls (open arms). The maze was raised approximately 65 cm above the floor.
Male Sprague Dawley rats (c. 200-300 g) were used for the study. 13 to 15 rats were studied per group.
Compounds were evaluated at three or four doses, administered p.o. 30 minutes to 2 hours before the test, at 5 mL per kg of body weight and its effects compared with vehicle-treated group.-Chlordiazepoxide hydrochloride (5 mg/kg, prepared in 0.9% saline), administered i.p. 30 minutes before the test, was used as reference substance to compare with the vehicle treated group.
The day before the test, rats were weighed. The compounds were prepared at least 24 hours before the test day. 30 minutes after dosing, each rat was placed in the centre of the apparatus and its behaviour was recorded for 5 minutes. The animals' behaviour on the maze was tracked using a camera mounted above the maze and the image analysed using EthoVision XT 13 video tracking software.
The percentage of time spent in the open arms was calculated by dividing the time spent on open arms to the total time in the maze.
Data were analysed by comparing treated groups with vehicle control group using one-way ANOVA followed by post-hoc Dunnett's tests.

Row | SMILES | α2-GABAAR Relative Efficacy (vs. Diazepam) [1] | percent time spent on open arms versus vehicle treated rats ([2]; 1, 3, and 10 mg/kg p.o.) | effect in the rat elevated plus maze assay [2] | percent time spent on open arms versus vehicle treated rats ([2]; 1 and 3 mg/kg p.o.) | percent time spent on open arms versus vehicle treated rats ([2]; 0.3, 1 and 3 mg/kg p.o.)
1 | CCCNC(=O)c1c(N)c2cccc(-c3cnccc3OC)c2[nH]c1=O [Example 17, 4-Amino-8-(4-methoxy-3-pyridyl)-2-oxo-N-propyl-1H-quinoline-3-carboxamide] | 0.33 | significantly higher | anxiolytic-like effects | – | –
2 | CCCNC(=O)c1c(N)c2cccc(-c3cnc(C)cc3OC)c2[nH]c1=O [Example 18, 4-Amino-8-(4-methoxy-6-methyl-3-pyridyl)-2-oxo-N-propyl-1H-quinoline-3-carboxamide] | 0.29 | – | anxiolytic-like effects | significantly higher | –
3 | CCCNC(=O)c1c(N)c2cccc(-c3nc(C)ncc3F)c2[nH]c1=O [Example 40, 4-Amino-8-(5-fluoro-2-methyl-pyrimidin-4-yl)-2-oxo-N-propyl-1H-quinoline-3-carboxamide] | 0.29 | – | anxiolytic-like effects | – | significantly higher
